Source: US9260759B2, “Pyrazoloanthrone and derivatives thereof for the treatment of cancers expressing MISRII” (The General Hospital Corporation, priority 2007, dated 2016)

Key:
[1] = molecular target: T1, BMP type II receptor (BMPRII) (Homo sapiens, UniProt Q13873); assay: BRE-luciferase reporter assay in COS7 cells transfected with BMP type II receptor; assay type: cell-based; conditions: cotreatment with BMP2 and 10 μM SP600125, BMPRII-transfected COS7
T1 construct: expressed in transfected cells; host or cells: COS7
T1 sequence (Q13873 27-1038): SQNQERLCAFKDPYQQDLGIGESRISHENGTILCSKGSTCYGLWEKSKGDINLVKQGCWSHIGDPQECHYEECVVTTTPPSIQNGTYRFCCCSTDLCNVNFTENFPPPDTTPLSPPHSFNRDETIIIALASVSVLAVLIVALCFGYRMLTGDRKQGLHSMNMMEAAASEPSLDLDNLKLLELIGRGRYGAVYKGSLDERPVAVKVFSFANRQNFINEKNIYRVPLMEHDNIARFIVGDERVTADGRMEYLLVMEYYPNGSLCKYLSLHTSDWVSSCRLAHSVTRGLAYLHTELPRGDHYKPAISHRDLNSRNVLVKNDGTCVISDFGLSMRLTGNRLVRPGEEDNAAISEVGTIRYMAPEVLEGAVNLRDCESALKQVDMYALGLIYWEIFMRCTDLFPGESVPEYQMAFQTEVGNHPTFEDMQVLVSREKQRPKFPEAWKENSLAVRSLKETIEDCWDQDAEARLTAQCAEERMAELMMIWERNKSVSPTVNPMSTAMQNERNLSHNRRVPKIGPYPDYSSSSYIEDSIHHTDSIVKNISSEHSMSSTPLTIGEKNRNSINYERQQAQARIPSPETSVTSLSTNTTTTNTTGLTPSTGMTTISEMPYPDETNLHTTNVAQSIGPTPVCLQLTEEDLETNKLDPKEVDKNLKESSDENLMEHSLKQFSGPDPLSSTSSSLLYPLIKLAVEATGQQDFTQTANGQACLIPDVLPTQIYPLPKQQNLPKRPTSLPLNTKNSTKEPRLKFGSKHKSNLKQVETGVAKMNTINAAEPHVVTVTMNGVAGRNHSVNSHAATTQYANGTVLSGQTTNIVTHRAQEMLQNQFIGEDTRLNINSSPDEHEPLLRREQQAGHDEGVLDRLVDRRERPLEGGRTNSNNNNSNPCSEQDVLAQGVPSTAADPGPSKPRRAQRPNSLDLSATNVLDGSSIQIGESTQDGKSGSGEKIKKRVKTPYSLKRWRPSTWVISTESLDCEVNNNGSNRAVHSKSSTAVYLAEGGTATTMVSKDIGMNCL

[2] = system: type II receptor for activin; assay: CAGA-promoter luciferase reporter in COS7 cells co-transfected with activin type II receptor; assay type: cell-based; conditions: alone or in combination with the receptor-ligand, COS7 (data not shown)
[3] = system: c-jun; assay: Western blot of anisomycin-induced c-jun phosphorylation in MOVCAR cells; assay type: cell-based, mouse
Procedure: The results are representative of several experiments.
Cells were washed in PBS and lysates were prepared in 1× Passive lysis buffer (PLB) provided with the Dual luciferase reporter assay kit (Promega). The lysates were cleared by centrifugation and the protein concentration was determined by Bradford assay (Bio-Rad, Hercules Calif.). […] of protein were loaded onto a NuPAGE 4-12% Bis-Tris gradient gel with MOPS-buffer (Invitrogen, Carlsbad Calif.) for polyacrylamide gel electrophoresis. Following transfer to a nitrocellulose by electroblotting, the membrane was blocked in 5% milk Tris-buffered saline/Tween20 (TBS-T) for 1 h at room temperature and incubated with primary antibody (pJNK, c-jun and phosph c-jun antibodies were purchased from Cell Signalling, Danvers, Mass.; amd JNK antibody was published from Santa Cruz Biotechnology, Calif.) overnight at 4° C. in 5% BSA followed by incubation with secondary horseradish peroxidase conjugated anti-rabbit antibody (Jackson ImmunoResearch, Westgrove Pa.) for 1 h. Immunoreactive proteins were detected by enhanced chemiluminescence (Pierce, Rockford Ill.). Anisomycin was purchased from Calbiochem.
The known Jun kinase activator anisomycin was used as a positive control (Hazzalin, 1998). […] Further, MIS had no effect on phosphorylation of JNK by anisomycin.

O=C1c2ccccc2-c2n[nH]c3cccc1c23 [SP600125, anthra[1,9-cd]pyrazol-6(2H)-one]
decrease of luciferase activity compared to BMP2 alone [1]: 25% | effect on CAGA-luciferase reporter [2]: did not have any significant effect | c-jun phosphorylation induced by 500 nM anisomycin ([3]; pre-treatment 10 uM SP600125): marginal and inconsistent inhibition | c-jun phosphorylation induced by 500 nM anisomycin ([3]; pre-treatment 25 uM): inhibition of c-jun phosphorylation
